# Laboratory results taken from publication PMC8778818, “Synthesis, Structural Characterization and Anticancer Activity of New 5-Trifluoromethyl-2-thioxo-thiazolo[4,5-d]pyrimidine Derivatives” (Pharmaceuticals, 2022).
# Experiments:
# CHO-K1 = experiment: MTT cell viability assay, CHO-K1; assay type: cell-based, Chinese Hamster; conditions: CHO-K1 normal cells, 72 h; for IC50: Cricetulus griseus, MTT, mean ± SD
# Procedure: (§1) Twelve compounds (2a-e, 3a-d and 4a-c) at a concentration range of 50–5000 μM were tested for their antiproliferative potential against four human cancer cell lines (A375—melanotic melanoma, C32—amelanotic melanoma, DU145—prostate cancer androgen-independent, MCF-7/WT—breast adenocarcinoma) and two normal cell lines: Chinese Hamster Ovary (CHO-K1) and immortalized human keratinocytes from histologically normal skin (HaCaT).
# (§2) To determine the antiproliferative activity of newly synthesized compounds, the following cell lines were used: human melanotic melanoma cell line (A375), human amelanotic melanoma cell line (C32), human breast adenocarcinoma cell line (MCF-7/WT), human prostate cancer androgen-independent (DU145) and two normal cell lines: hamster ovarian (CHO-K1) and immortalized human keratinocytes from histologically normal skin (HaCaT). The cells were obtained from the cell line bank of the Department of Molecular and Cellular Biology, Wroclaw Medical University. A375, C32, MCF-7/WT, DU145 and HaCaT cells were grown in a monolayer cultured in Dulbecco’s Modified Eagle’s Medium (DMEM, Sigma-Aldrich, Poznań, Poland), supplemented with 10% of fetal bovine serum (FBS, Gibco, Paisley, UK) and 1% of antibiotics (penicillin/streptomycin, Sigma-Aldrich) and CHO-K1 were grown in HAM’s F-12 medium (Sigma-Aldrich), supplemented with 10% fetal bovine serum (FBS, Gibco) and 1% of antibiotics (penicillin/streptomycin, Sigma-Aldrich). Cell lines were cultured in the polystyrene flasks 25 or 75 cm^2 (Thermo Fisher Scientific, Waltham, MA, USA), which were stored in 37 °C and 5% CO2 in a humidified 95% atmosphere (SteriCult, Thermo Scientific, Alab). The cell medium was exchanged twice a week. The exponentially growing cells were used throughout the experiments. The cells were rinsed with phosphate-buffered saline (PBS, Sigma-Aldrich) and trypsinized by Trypsin-EDTA 0.25% solution (Sigma-Aldrich).
# (§3) The influence of the compounds was performed in a monolayer culture on cancer and normal cells. Compounds were initially dissolved in DMSO; further dilutions of the compound were performed in Dulbecco’s Modified Eagle’s Medium supplemented with 10% FBS. Compounds were tested in a 50–5000 µM concentration range. In the in vitro experiments, the concentrations of DMSO in the final solution of the compounds were used 0.05%; 0.1%; 0.5%; 1%, respectively.
# (§4) Cell viability was determined using the MTT colorimetric assay. All cell lines were seeded into 96-well plates to a density of 3 × 10^4 cells/well. After 24 h, the culture supernatants were removed and appropriate dilutions of compounds in the culture medium (200 µL/well) were added to the cells’ monolayer cultures and incubated for an additional 72 h. After 72 h of exposition to the compounds and the removal of the culture medium, cell viability was determined by reducing the yellow dye 3-(4,5-dimethyl-2-thiazol)-2,5-diphenyl-2H-tetrazolium bromide (MTT assay, Sigma Saint Louis, MO, USA; In Vitro Toxicology Assay) to a blue formazan product. The absorbance of the resulting solutions in three duplicate experiments was measured at the wavelength of 560 nm in a microplate reader (EnSpire, Perkin Elmer, Kraków, Poland). MTT assay is a colorimetric method that estimates the rate of metabolism in viable cells. Absorbance is directly proportional to the number of viable cells. All the experiments were performed three times and the mean absorbance values were calculated. The methodology for the evaluation of the growth of human cancer and normal cells was described previously. The cell viability in each group was expressed as a percentage of control (untreated) cells.
# A375 = experiment: MTT cell viability assay, A375; assay type: cell-based, human; conditions: A375, MTT, mean ± SD
# Procedure: as §1, §2, §3, §4
# DU145 = experiment: MTT cell viability assay, DU145; assay type: cell-based, human; conditions: for IC50: Homo sapiens, DU-145, DU145, MTT, 72 h, mean ± SD; for cytotoxic effect (in words): DU145, 72 h
# Procedure: as §1, §2, §3, §4
# [1] = tested on: A375, C32, DU145, MCF-7/WT, CHO-K1 and HaCaT cell lines; experiment: MTT cell viability assay, all six cell lines; assay type: cell-based; conditions: mean over the six cell lines; read-out: Mean A: the mean IC50 for the given compound
# Procedure: as §1, §2, §3, §4
# C32 = experiment: MTT cell viability assay, C32; assay type: cell-based, human; conditions: for IC50: Homo sapiens, C32, MTT, 72 h, mean ± SD; for cytotoxic effect (in words): C32, 72 h
# Procedure: as §1, §2, §3, §4
# HaCaT = experiment: MTT cell viability assay, HaCaT; assay type: cell-based, human; conditions: 72 h; for IC50: Homo sapiens, HaCaT normal cells, MTT, mean ± SD; for cytotoxic effect (in words): HaCaT human keratinocytes
# Procedure: as §1, §2, §3, §4
# MCF-7/WT = experiment: MTT cell viability assay, MCF-7/WT; assay type: cell-based; conditions: Homo sapiens, MCF7, 72 h, mean ± SD
# Procedure: as §1, §2, §3, §4
# [2] = tested on: 60 human cancer cell lines; parameters: method as in PMID 579132; conditions: cited from earlier work; for Mean Growth %: 10^−5 M one dose, mean over the panel, analogs I–VII; for N2: number of cell lines giving positive log TGI (≤−4.01): of N = 59 tested cell lines; for N2: number of cell lines giving positive log TGI (≤−4.01) / log GI50 Range / log LC50 Range / log TGI Range: analogs IV and V; for log GI50 Range / log LC50 Range / log TGI Range: values > −4.00 excluded
# HOP-92 = tested on: HOP-92; parameters: method as in PMID 579132; conditions: NS Cell Lung C. HOP-92, 10^−5 M one dose; cited from earlier work
# UO-31 = tested on: UO-31; parameters: method as in PMID 579132; conditions: Renal C. UO-31, 10^−5 M one dose; cited from earlier work
# RPMI-8226 = tested on: RPMI-8226; parameters: method as in PMID 579132; conditions: Leukemia, 10^−5 M one dose; cited from earlier work
# UACC-62 = tested on: UACC-62; parameters: method as in PMID 579132; conditions: Melanoma UACC-62, 10^−5 M one dose; cited from earlier work
# SF-295 = tested on: SF-295; parameters: method as in PMID 579132; conditions: CNS C. SF-295, 10^−5 M one dose; cited from earlier work
# CAKI-1 = tested on: CAKI-1; parameters: method as in PMID 579132; conditions: Renal C. CAKI-1, 10^−5 M one dose; cited from earlier work
SMILES,"IC50 (A375; Homo sapiens, A-375, 72 h)",IC50 (DU145),IC50 (MCF-7/WT),IC50 (CHO-K1),IC50 [1],IC50 (C32),IC50 (HaCaT),Mean Growth % [2],also measured
"CCn1c(=S)sc2c(=O)[nH]c(C(F)(F)F)nc21 [Compound 2a, 3-ethyl-2-thioxo-5-(trifluoromethyl)-2,3-dihydro[1, 3]thiazolo[4,5-d]pyrimidin-7(6H)-one]",429 ± 17.5 µM,251 ± 10.2 µM,519 ± 21.1 µM,521 ± 21.2 µM,462 µM,434 ± 17.7 µM,615 ± 25 µM,–,–
"O=c1[nH]c(C(F)(F)F)nc2c1sc(=S)n2-c1ccccc1F [Compound 2c, 3-(2-fluoropheny)l-2-thioxo-5-(trifluoromethyl)-2,3-dihydro[1, 3]thiazolo[4,5-d]pyrimidin-7(6H)-one]",450 ± 17.6 µM,163 ± 6.4 µM,420 ± 16.5 µM,525 ± 20.6 µM,411 µM,364 ± 14.3 µM,543 ± 21.3 µM,–,melting point: 211 to 212 °C
O=c1[nH]c(-c2cccnc2)nc2c1sc(=S)n2-c1ccccc1 [III],–,–,–,–,–,–,–,105.59%,Growth % of the most sensitive cell line (HOP-92): 73.81%
O=c1[nH]c(-c2ccc(F)cc2)nc2c1sc(=S)n2-c1ccccc1 [II],–,–,–,–,–,–,–,106.11%,Growth % of the most sensitive cell line (HOP-92): 55.97%
S=c1sc2c(Cl)nc(-c3cccnc3)nc2n1-c1ccccc1 [IV],–,–,–,–,–,–,–,20.78%,"log TGI Δ ([2]; logarithmic difference between most sensible cell line and MG_MID, analog IV): 1.12; N2: number of cell lines giving positive log TGI (≤−4.01) [2]: 7; log GI50 Range [2]: −5.28 to −6.26 log M; log LC50 Range [2]: −5.17 to −5.26 log M; log TGI Range [2]: −4.52 to −5.51 log M; Growth % of the most sensitive cell line (UO-31): −85.59%"
O=c1[nH]c(-c2ccc(Cl)cc2)nc2c1sc(=S)n2-c1ccccc1 [I],–,–,–,–,–,–,–,80.85%,Growth % of the most sensitive cell line (RPMI-8226): 29.76%
Fc1ccc(CNc2nc(-c3ccc(F)cc3)nc3c2sc(=S)n3-c2ccccc2)cc1 [VII],–,–,–,–,–,–,–,89.50%,Growth % of the most sensitive cell line (UACC-62): 54.52%
Fc1ccc(CNc2nc(-c3ccc(Cl)cc3)nc3c2sc(=S)n3-c2ccccc2)cc1 [VI],–,–,–,–,–,–,–,48.46%,Growth % of the most sensitive cell line (SF-295): −43.11%
Fc1ccc(-c2nc(Cl)c3sc(=S)n(-c4ccccc4)c3n2)cc1 [V],–,–,–,–,–,–,–,–,N2: number of cell lines giving positive log TGI (≤−4.01) [2]: 49; log GI50 Range [2]: −4.23 to −8.00 log M; log LC50 Range [2]: −4.07 to −5.42 log M; log TGI Range [2]: −4.10 to −5.90 log M; Growth % of the most sensitive cell line (CAKI-1): −88.95%

# Continued, in another order:
"IC50 (A375; Homo sapiens, A-375, 72 h)",IC50 (DU145),IC50 (MCF-7/WT),SMILES,IC50 (CHO-K1),IC50 [1],IC50 (C32),IC50 (HaCaT),Mean Growth % [2],also measured
531 ± 22.4 µM,121 ± 5.1 µM,519 ± 21.9 µM,"O=c1[nH]c(C(F)(F)F)nc2c1sc(=S)n2-c1cccc(F)c1 [Compound 2d, 3-(3-fluorophenyl)-2-thioxo-5-(trifluoromethyl)-2,3-dihydro[1, 3]thiazolo[4,5-d]pyrimidin-7(6H)-one]",553 ± 23.3 µM,472 µM,384 ± 16.2 µM,725 ± 30.6 µM,–,–
379 ± 13.5 µM,139 ± 5 µM,434 ± 15.5 µM,"O=c1[nH]c(C(F)(F)F)nc2c1sc(=S)n2-c1ccc(F)cc1 [Compound 2e, 3-(4-fluoropheny)l-2-thioxo-5-(trifluoromethyl)-2,3-dihydro[1, 3]thiazolo[4,5-d]pyrimidin-7(6H)-one]",483 ± 17.2 µM,337 µM,355 ± 12.6 µM,234 ± 8.3 µM,–,melting point: 259 to 260 °C
142 ± 3.6 µM,72.5 ± 1.9 µM,356 ± 9.1 µM,"CCn1c(=S)sc2c(Cl)nc(C(F)(F)F)nc21 [Compound 3a, 7-chloro-3-ethyl-5-(trifluoromethyl)[1, 3]thiazolo[4,5-d]pyrimidine-2(3H)-thione]",122 ± 3.1 µM,145 µM,89.3 ± 2.3 µM,88.3 ± 2.3 µM,–,melting point: 66 to 67 °C; cytotoxic effect (in words) (DU145): strong cytotoxic effect; cytotoxic effect (in words) (C32): strong cytotoxic effect; cytotoxic effect (in words) (HaCaT): strong cytotoxic effect
108 ± 2.6 µM,168 ± 4 µM,248 ± 6 µM,"Fc1ccccc1-n1c(=S)sc2c(Cl)nc(C(F)(F)F)nc21 [Compound 3c, 7-chloro-(2-fluoropheny)-5-(trifluoromethyl)[1, 3]thiazolo[4,5-d]pyrimidine-2(3H)-thione]",93.8 ± 2.3 µM,124 µM,86.4 ± 2.1 µM,37.8 ± 0.9 µM,–,cytotoxic effect (in words) (CHO-K1): strong cytotoxic effect; cytotoxic effect (in words) (C32): strong cytotoxic effect; cytotoxic effect (in words) (HaCaT): strong cytotoxic effect
103 µM,126 ± 4.2 µM,540 ± 17.9 µM,"Fc1cccc(-n2c(=S)sc3c(Cl)nc(C(F)(F)F)nc32)c1 [Compound 3d, 7-chloro-(3-fluoropheny)-5-(trifluoromethyl)[1, 3]thiazolo[4,5-d]pyrimidine-2(3H)-thione]",512 ± 17 µM,288 µM,87.4 ± 2.9 µM,360 ± 11.9 µM,–,cytotoxic effect (in words) (CHO-K1): non-toxic; IC50 (A375; 72 h): 104 ± 3.4 µM; cytotoxic effect (in words) (C32): strong cytotoxic effect; cytotoxic effect (in words) (HaCaT): non-toxic
114 ± 3.5 µM,96.9 ± 3 µM,144 ± 4.4 µM,"CNc1nc(C(F)(F)F)nc2c1sc(=S)n2-c1ccccc1 [Compound 4a, 7-(methylamino)-3-phenyl-5-(trifluoromethyl)[1, 3]thiazolo[4,5-d]pyrimidine-2(3H)-thione]",48.5 ± 1.5 µM,214 µM,132 ± 4.1 µM,748 ± 22.9 µM,–,cytotoxic effect (in words) (CHO-K1): high cytotoxicity; melting point: 197 to 198 °C; cytotoxic effect (in words) (DU145): high cytotoxicity
